The subject of this test is L1210 leukemia ip in BDF1 mice, survival T/C. Kind of test: NCI In Vivo Anticancer Drug Screen. Data for tumor model L1210 Leukemia (intraperitoneal) in B6D2F1 (BDF1) mice. As to conditions: endpoint: mean survival time, higher = longer survival. The gist of the method:
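Transplanted-tumor mice were given test agent; controls received vehicle only. Survival readings from the two groups were divided (treated over control).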

Setting [1] is: dose: 100.0 mg/kg/injection, schedule: Q01DX001 (ip), vehicle: saline.
Setting [2] is: dose: 100.0 mg/kg/injection, schedule: Q04DX003 (ip), vehicle: saline.
Setting [3] is: dose: 200.0 mg/kg/injection, schedule: Q01DX001 (ip), vehicle: saline.
The mark [4] stands for this setting: dose: 200.0 mg/kg/injection, schedule: Q04DX003 (ip), vehicle: saline.
The mark [5] stands for this setting: dose: 400.0 mg/kg/injection, schedule: Q01DX001 (ip), vehicle: saline.
Where [6] appears, read: dose: 400.0 mg/kg/injection, schedule: Q04DX003 (ip), vehicle: saline.
Setting [7] is: dose: 100.0 mg/kg/injection, schedule: Q04DX003 (ip), vehicle: Klucel (hydroxypropylcellulose) (HPC).
The mark [8] stands for this setting: dose: 200.0 mg/kg/injection, schedule: Q04DX003 (ip), vehicle: Klucel (hydroxypropylcellulose) (HPC).
[9] abbreviates: dose: 400.0 mg/kg/injection, schedule: Q04DX003 (ip), vehicle: Klucel (hydroxypropylcellulose) (HPC).
Where [10] appears, read: dose: 100.0 mg/kg/injection, schedule: Q01DX009 (ip), vehicle: saline with Tween-80.
Where [11] appears, read: dose: 100.0 mg/kg/injection, schedule: Q04DX003 (ip), vehicle: saline with Tween-80.
Where [12] appears, read: dose: 200.0 mg/kg/injection, schedule: Q01DX009 (ip), vehicle: saline with Tween-80.
Setting [13] is: dose: 200.0 mg/kg/injection, schedule: Q04DX003 (ip), vehicle: saline with Tween-80.
Setting [14] is: dose: 400.0 mg/kg/injection, schedule: Q01DX009 (ip), vehicle: saline with Tween-80.
Where [15] appears, read: dose: 400.0 mg/kg/injection, schedule: Q04DX003 (ip), vehicle: saline with Tween-80.
Where [16] appears, read: dose: 25.0 mg/kg/injection, schedule: Q04DX002 (ip), vehicle: Klucel (hydroxypropylcellulose) (HPC).
Setting [17] is: dose: 50.0 mg/kg/injection, schedule: Q04DX002 (ip), vehicle: Klucel (hydroxypropylcellulose) (HPC).

Where “and” joins values, the source holds several entries; their conditions need not be identical. Equal entries are not always repeated. Inconclusive results and toxic doses are left out.

In the case of `CN(C)N=Nc1n[nH]nc1C(N)=O`, the T/C runs as follows: (dose: 50.0 mg/kg/injection, schedule: Q01DX001 (ip), vehicle: saline) 102 % of control; (dose: 66.0 mg/kg/injection, schedule: Q01DX Z (ip), vehicle: carboxymethylcellulose (CMC)) 112 % of control; under setting [1], 109 % of control and 118 % of control; (dose: 100.0 mg/kg/injection, schedule: Q01DX009 (ip), vehicle: saline) 113 % of control; (dose: 100.0 mg/kg/injection, schedule: Q01DX Z (ip), vehicle: carboxymethylcellulose (CMC)) 106 % of control; under setting [2], 98 % of control. Also, the T/C by setting is: (dose: 134.0 mg/kg/injection, schedule: Q01DX009 (ip), vehicle: saline) 117 % of control; (dose: 168.0 mg/kg/injection, schedule: Q01DX Z (ip), vehicle: carboxymethylcellulose (CMC)) 116 % of control; under setting [3], 107 % of control and 118 % of control; under setting [4], 120 % of control; (dose: 287.0 mg/kg/injection, schedule: Q04DX003 (ip), vehicle: saline) 102 % of control; (dose: 287.5 mg/kg/injection, schedule: Q01DX001 (ip), vehicle: saline) 103 % of control. For the same molecule, the T/C runs as follows: under setting [5], 115 % of control; (dose: 400.0 mg/kg/injection, schedule: Q01DX009 (ip), vehicle: saline) 154 % of control; under setting [6], 124 % of control; (dose: 575.0 mg/kg/injection, schedule: Q01DX001 (ip), vehicle: saline) 109 % of control; (dose: 575.0 mg/kg/injection, schedule: Q04DX003 (ip), vehicle: saline) 110 % of control; (dose: 1150.0 mg/kg/injection, schedule: Q01DX001 (ip), vehicle: saline) 117 % of control. Also, the T/C (dose: 1150.0 mg/kg/injection, schedule: Q04DX003 (ip), vehicle: saline) was 112 % of control.
`Nc1[nH]c(=S)ncc1-c1ccc(Cl)c(Cl)c1`: the T/C is, setting by setting: under setting [7], 101 % of control; under setting [8], 97 % of control; under setting [9], 93 % of control.
As for `C(=N\n1cnnc1)/c1ccccc1/C=N/n1cnnc1`, the T/C reads like this: under setting [10], 116 % of control; under setting [11], 103 % of control; under setting [12], 96 % of control; under setting [13], 100 % of control; under setting [14], 89 % of control; under setting [15], 89 % of control.
With `NC(CCl)=NCCCN1CCCCC1`, the T/C was 104 % of control (dose: 12.5 mg/kg/injection, schedule: Q01DX009 (ip), vehicle: Klucel (hydroxypropylcellulose) (HPC)); 107 % of control (dose: 12.5 mg/kg/injection, schedule: Q04DX002 (ip), vehicle: Klucel (hydroxypropylcellulose) (HPC)); 96 % of control (dose: 25.0 mg/kg/injection, schedule: Q01DX009 (ip), vehicle: Klucel (hydroxypropylcellulose) (HPC)); 96 % of control under setting [16]; 105 % of control under setting [17].
For `CCc1cccc(OC/C=C(\C)CCC2OC2(C)CC)c1` (centres undefined), the T/C is 100 % of control (dose: 100.0 mg/kg/injection, schedule: Q04DX002 (ip), vehicle: saline with Tween-80); 100 % of control (dose: 200.0 mg/kg/injection, schedule: Q04DX002 (ip), vehicle: saline with Tween-80); 94 % of control (dose: 400.0 mg/kg/injection, schedule: Q04DX002 (ip), vehicle: saline with Tween-80).
For `COc1cc(/C=N/NC(=O)c2ccncc2)cc(OC)c1OC`, the T/C reads like this: under setting [10], 112 % of control; under setting [11], 111 % of control; under setting [12], 101 % of control; under setting [13], 118 % of control; under setting [14], 98 % of control; under setting [15], 100 % of control.
With `CC(=O)Nc1ccc(NC(=O)Nc2ccc(C)cc2)cc1`, the T/C was 90 % of control (dose: 50.0 mg/kg/injection, schedule: Q01DX009 (ip), vehicle: saline with Tween-80); 90 % of control under setting [10]; 90 % of control under setting [12].
On to `ON1CCCC1`, for which the T/C was 95 % of control (dose: 100.0 mg/kg/injection, schedule: Q01DX009 (ip), vehicle: water); 92 % of control (dose: 100.0 mg/kg/injection, schedule: Q04DX003 (ip), vehicle: water); 101 % of control (dose: 200.0 mg/kg/injection, schedule: Q01DX009 (ip), vehicle: water); 92 % of control (dose: 200.0 mg/kg/injection, schedule: Q04DX003 (ip), vehicle: water); 92 % of control (dose: 400.0 mg/kg/injection, schedule: Q04DX003 (ip), vehicle: water).
As for `COc1cc([N+](=O)[O-])ccc1NC(=O)Cc1ccccc1`, the T/C under setting [10] is 111 % of control, the T/C under setting [12] was 91 % of control and the T/C under setting [14] is 96 % of control.
As to `CN(C)c1ccc(N=NC#N)cc1`, the T/C was 108 % of control (dose: 1.56 mg/kg/injection, schedule: Q01DX009 (ip), vehicle: saline); 105 % of control (dose: 3.12 mg/kg/injection, schedule: Q01DX009 (ip), vehicle: saline); 104 % of control (dose: 6.25 mg/kg/injection, schedule: Q01DX009 (ip), vehicle: saline with Tween-80); 105 % of control (dose: 6.25 mg/kg/injection, schedule: Q01DX009 (ip), vehicle: saline).
For `Cc1ccc(S(=O)(=O)N=Nc2c(O)[nH]c3cc(O)c(C(=O)O)cc23)cc1`, the T/C by setting is: (dose: 50.0 mg/kg/injection, schedule: Q04DX003 (ip), vehicle: Klucel (hydroxypropylcellulose) (HPC)) 103 % of control; under setting [7], 92 % of control; under setting [11], 100 % of control; under setting [8], 92 % of control and 98 % of control; under setting [13], 110 % of control; under setting [9], 95 % of control. The T/C under setting [15] is 110 % of control.
Consider `CCOP(=O)(OCC)Oc1ccccc1`, for which the T/C by setting is: under setting [2], 91 % of control; under setting [4], 92 % of control; under setting [6], 94 % of control.
Taken in the same sequence, the figures for `Clc1ccccc1Nc1c2ccccc2nc2ccccc12` were 100 % of control, 102 % of control and 96 % of control.
For the molecule `O=c1oc(-c2ccco2)nc2ccccc12`, the T/C is, setting by setting: (dose: 100.0 mg/kg/injection, schedule: Q01DX009 (ip), vehicle: Klucel (hydroxypropylcellulose) (HPC)) 101 % of control; under setting [7], 102 % of control; (dose: 200.0 mg/kg/injection, schedule: Q01DX009 (ip), vehicle: Klucel (hydroxypropylcellulose) (HPC)) 110 % of control; under setting [8], 95 % of control; under setting [9], 93 % of control.
As for `O=C(Nc1ccccc1)c1cccnc1`, the T/C is 94 % of control (dose: 100.0 mg/kg/injection, schedule: Q01DX001 (ip), vehicle: carboxymethylcellulose (CMC)); 91 % of control (dose: 200.0 mg/kg/injection, schedule: Q01DX001 (ip), vehicle: carboxymethylcellulose (CMC)); 96 % of control (dose: 400.0 mg/kg/injection, schedule: Q01DX001 (ip), vehicle: carboxymethylcellulose (CMC)).
`COc1cc2c(cc1O)C(CCc1cc(OC)c(OC)c(OC)c1)=[N+](C)CC2`: the T/C runs as follows: under setting [16], 101 % of control; under setting [17], 101 % of control; (dose: 100.0 mg/kg/injection, schedule: Q04DX002 (ip), vehicle: Klucel (hydroxypropylcellulose) (HPC)) 105 % of control.
`N#CCCN1CCCC1=O`: the T/C is 103 % of control under setting [1], 100 % of control under setting [3] and 106 % of control under setting [5].

(Values after PubChem BioAssay AID248 (DTP/NCI, 2004).)
